Results as given in patent publication US20210353579A1, “HIGH PENETRATION COMPOSITIONS AND USES THEREOF” (Techfields Pharma Co., Ltd., priority 2006, published 2021).

Key:
[1] = tested on: rats (SLAC/GK, type 2 diabetes); assay: Blood lipid in type 2 diabetes rats, transdermal; format: in vivo, rat; settings: for Cholesterol (HDL), Baseline / Cholesterol (total), Baseline / Triglycerides, Baseline: equal to 20 mg/kg of NSAIAs; for Cholesterol (HDL), Average / Cholesterol (total), Average / Triglycerides, Average: end of the fifth week, equal to 20 mg/kg of NSAIAs once per day
Description: (§1) HPPs lower blood glucose level in rat models (SLAC/GK, type 2 diabetes, n=7). 50% acetone solution of diethylaminoethyl acetylsalicylate.acetylsalicylic acid salt (P-1, in acetone); 4-acetamidophenyl salicylyldimethylaminobutyrate.HCl (P-6), diethylaminoethyl 5-(2,4-difluorophenyl) acetylsalicylate.5-(2,4-difluorophenyl).acetylsalicylic acid salt (P-8), diethylaminoethyl salicylsalicylate.AcOH (P-9), diethylaminoethyl salicylate.AcOH (P-10), diethylaminoethyl 5-acetamido-acetylsalicylate (P-58), diethylaminoethyl acetylsalicylsalicylate.acetylsalicylsalicylic acid salt (P-59), diethylaminoethyl acetylsalicylsalicylate.acetylsalicylsalicylsalicylic acid salt (P-60) (equal to of 20 mg/kg of NSAIAs) are administered transdermally to the backs (about 1.5 cm^2) of rats (fur was shaved) once per day (at 8 am) for 5 weeks. The blood glucose levels are measured once every 3 days at 3 pm (no fasting) from the second week to the fifth week (Table 24). The blood lipid levels are measured at the end of the fifth week (Table 25).

[2] = tested on: rats (SLAC/GK, type 2 diabetes); assay: Blood glucose in type 2 diabetes rats, oral with food; format: in vivo, rat; settings: for Blood glucose, Diabetic rats, Average: average second to fifth week, no fasting, equal to 20 mg/kg of NSAIAs every day for 5 weeks; for Blood glucose, Diabetic rats, Baseline: equal to 20 mg/kg of NSAIAs
Description: (§2) 20% acetone solution of diethylaminoethyl acetylsalicylate.acetylsalicylic acid salt (P-1, in acetone); 4-acetamidophenyl salicylyldimethylaminobutyrate.HCl (P-6), diethylaminoethyl 5-(2,4-difluorophenyl) acetylsalicylate.5-(2,4-difluorophenyl) acetylsalicylic acid salt (P-8), diethylaminoethyl salicylsalicylate.AcOH (P-9), diethylaminoethyl salicylate.AcOH (P-10), diethylaminoethyl 5-acetamido-acetylsalicylate (P-58), diethylaminoethyl acetylsalicylsalicylate. acetylsalicylsalicylic acid salt (P-59), diethylaminoethyl acetylsalicylsalicylate. acetylsalicylsalicylsalicylic acid salt (P-60) (equal to of 20 mg/kg of NSAIAs) were mixed with food and were orally administered to the rats (SLAC/GK, type 2 diabetes, n=7) with food every day for 5 weeks. The blood glucose levels were measured once every 3 days at 3 pm (no fasting) from the second week to the fifth week. The blood lipid levels were measured at the end of the fifth week.

[3] = tested on: mice (SLAC:NOD-IDDM, type 1 diabetes); assay: Blood glucose in type 1 diabetes mice, transdermal; format: in vivo, mouse; settings: for Blood glucose, Average: average fourth to seventh week, no fasting, equal to 30 mg/kg of NSAIAs once per day for 7 weeks; for Blood glucose, Baseline: equal to 30 mg/kg of NSAIAs
Description: The pro-drugs in this invention lower blood glucose levels in mouse models (SLAC:NOD-IDDM, type 1 diabetes, n=7). 50% acetone solution of diethylaminoethyl acetylsalicylate.acetylsalicylic acid salt (P-1, in acetone); 4-acetamidophenyl salicylyldimethylaminobutyrate.HCl (P-6), diethylaminoethyl 5-(2,4-difluorophenyl) acetylsalicylate.5-(2,4-difluorophenyl) acetylsalicylic acid salt (P-8), diethylaminoethyl salicylsalicylate.AcOH (P-9), diethylaminoethyl salicylate.AcOH (P-10), diethylaminoethyl 5-acetamido-acetylsalicylate (P-58), diethylaminoethyl acetylsalicylsalicylate. acetylsalicylsalicylic acid salt (P-59), diethylaminoethyl acetylsalicylsalicylate. acetylsalicylsalicylsalicylic acid salt (P-60) (equal to of 30 mg/kg of NSAIAs) were administered transdermally to the backs (about 1.5 cm^2) of mice (fur was shaved) once per day (at 8 am) for 7 weeks. The blood glucose levels were measured once every 3 days at 3 pm (no fasting) from the fourth week to the seventh week.

normal rats [4] = assay: Blood glucose in normal rats, transdermal; format: in vivo, rat; settings: for Blood glucose, Average: normal rats (second Average line of Table 24), average second to fifth week, equal to 20 mg/kg of NSAIAs once per day; for Blood glucose, Baseline: normal rats (second Baseline line of Table 24), equal to 20 mg/kg of NSAIAs
Description: as §1, with “25). […]” for “25).”

[5] = tested on: rats (SLAC/GK, type 2 diabetes); assay: Blood glucose in type 2 diabetes rats, transdermal; format: in vivo, rat; settings: diabetic rats (SLAC/GK); for Blood glucose, Average: average second to fifth week, no fasting, equal to 20 mg/kg of NSAIAs once per day for 5 weeks; for Blood glucose, Baseline: equal to 20 mg/kg of NSAIAs once per day
Description: as §1

normal rats [6] = assay: Blood glucose in normal rats, oral with food; format: in vivo, rat; settings: for Blood glucose, Normal rats, Average: average second to fifth week, equal to 20 mg/kg of NSAIAs every day; for Blood glucose, Normal rats, Baseline: equal to 20 mg/kg of NSAIAs
[7] = tested on: rats (SLAC/GK, type 2 diabetes); assay: Blood lipid in type 2 diabetes rats, oral with food; format: in vivo, rat; settings: for Cholesterol (HDL), Baseline / Cholesterol (total), Baseline / Triglycerides, Baseline: equal to 20 mg/kg of NSAIAs; for Cholesterol (HDL), Average / Cholesterol (total), Average / Triglycerides, Average: end of the fifth week, equal to 20 mg/kg of NSAIAs every day
Description: as §2

[8] = tested on: Human breast cancer cells (BCAP-37); assay: Human breast cancer xenograft in nude mice, topical; settings: day 42, 30 μl of 5% (1.5 mg) topically every 8 hours from day 14; for Tumor size: control 800 ± 100
Protocol: Human breast cancer cells (BCAP-37, 2-3 mm^3 of tumor tissue was used in each mouse) are subcutaneously xenografted into the front leg of nude mice (BALB, 12 groups, 7 mice each group). […] Then 30 μl of 5% (equal to 1.5 mg of the HPPs) diethylaminoethyl acetylsalicylate.acetylsalicylic acid salt (P-1, in acetone); 1-piperidinepropyl 2[(2,6-dichlorophenyl)amino]benzene acetate.AcOH (P-2, in water), 1-pyrrolidinepropyl 2-(3-benzoylphenyl) propionate.AcOH (P-3, in water), 4-piperidinemethyl 2-(3-phenoxyphenyl)propionate.AcOH (P-4, in water), 3-piperidinemethyl 2-(ρ-isobutylphenyl) propionate.AcOH (P-5, in water), diethylaminoethyl 1-(p-chlorobenzoyl)-5-methoxy-2-methylindole 3-acetate.AcOH (P-11, in water), 2-(4-morpholinyl)ethyl (Z)-5-fluoro-2-methyl-1-[(4-methylsulfinyl) phenylmethylene]-1H-indene-3-acetate.AcOH (P-12, in water), diethylaminoethyl

SMILES | Cholesterol (HDL), Baseline [1] [mmol/L] | Cholesterol (total), Baseline [1] [mmol/L] | Triglycerides, Baseline [1] [mmol/L] | Cholesterol (HDL), Average [1] [mmol/L] | Cholesterol (total), Average [1] [mmol/L] | Triglycerides, Average [1] [mmol/L] | Blood glucose, Diabetic rats, Average [2] [mmol/L] | Blood glucose, Diabetic rats, Baseline [2] [mmol/L] | Blood glucose, Average [3] [mmol/L] | Blood glucose, Baseline [3] [mmol/L] | Blood glucose, Average (normal rats [4]) [mmol/L] | Blood glucose, Baseline (normal rats [4]) [mmol/L] | Blood glucose, Average [5] [mmol/L] | Blood glucose, Baseline [5] [mmol/L] | Blood glucose, Normal rats, Average (normal rats [6]) [mmol/L] | Blood glucose, Normal rats, Baseline (normal rats [6]) [mmol/L] | Cholesterol (HDL), Baseline [7] [mmol/L] | Cholesterol (total), Baseline [7] [mmol/L] | Triglycerides, Baseline [7] [mmol/L] | Cholesterol (HDL), Average [7] [mmol/L] | further results
CC(=O)Nc1ccc(OC(=O)c2ccccc2OC(=O)CCCN(C)C)cc1.Cl [P-6] | 1.3 ± 0.1 | 7.3 ± 0.5 | 5.3 ± 0.5 | 1.3 ± 0.2 | 4.7 ± 0.4 | 2.3 ± 0.2 | 7.5 ± 2 | 16.1 ± 4 | 9.5 ± 2 | 27.7 ± 4 | 6.5 ± 1 | 6.8 ± 1 | 8.5 ± 2 | 16.7 ± 4 | 6.4 ± 1 | 6.5 ± 1 | 1.5 ± 0.1 | 7.5 ± 0.4 | 5.5 ± 0.5 | 1.4 ± 0.2 | Cholesterol (total), Average [7]: 4.9 ± 0.4 mmol/L; Triglycerides, Average [7]: 1.8 ± 0.2 mmol/L
CC(=O)Oc1ccc(-c2ccc(F)cc2F)cc1C(=O)O.CCN(CC)CCOC(=O)c1cc(-c2ccc(F)cc2F)ccc1OC(C)=O [P-8, diethylaminoethyl 5-(2,4-difluorophenyl) acetylsalicylate.5-(2,4-difluorophenyl) acetylsalicylic acid salt] | 1.6 ± 0.2 | 7.6 ± 0.6 | 5.6 ± 0.6 | 1.5 ± 0.2 | 5.3 ± 0.3 | 1.9 ± 0.2 | 7.3 ± 1 | 16.1 ± 3 | 9.1 ± 1 | 29.1 ± 5 | 6.8 ± 1 | 7.1 ± 1 | 8.1 ± 1 | 17.1 ± 3 | 6.8 ± 1 | 7.0 ± 1 | 1.4 ± 0.2 | 7.8 ± 0.6 | 5.6 ± 0.7 | 1.3 ± 0.2 | Cholesterol (total), Average [7]: 5.7 ± 0.3 mmol/L; Triglycerides, Average [7]: 1.8 ± 0.2 mmol/L
CC(=O)O.CC1=C(CC(=O)OCCN2CCOCC2)c2cc(F)ccc2/C1=C\c1ccc([S+](C)[O-])cc1 (stereo not shown) [P-12, 2-(4-morpholinyl)ethyl (Z)-5-fluoro-2-methyl-1-[(4-methylsulfinyl)phenylmethylene]-1H-indene-3-acetate.AcOH] | – | – | – | – | – | – | – | – | – | – | – | – | – | – | – | – | – | – | – | – | Tumor size [8]: 250 ± 50 mm^3
CC(=O)O.O=C(OCCCN1CCCC1)c1ccccc1Nc1cccc(C(F)(F)F)c1 [P-48] | – | – | – | – | – | – | – | – | – | – | – | – | – | – | – | – | – | – | – | – | Mouse weight ([8]; control 22 ± 2): 22 ± 3 g; Tumor size [8]: 290 ± 50 mm^3
CCN(CC)CCOC(=O)c1cc(NC(C)=O)ccc1OC(C)=O [P-58, diethylaminoethyl 5-acetamido-acetylsalicylate] | 1.3 ± 0.1 | 7.8 ± 0.5 | 5.3 ± 0.5 | 1.4 ± 0.2 | 5.6 ± 0.4 | 2.4 ± 0.2 | 8.4 ± 1 | 17.0 ± 3 | 7.9 ± 1 | 27.1 ± 3 | 7.1 ± 1 | 6.9 ± 1 | 8.4 ± 1 | 17.1 ± 3 | 7.2 ± 1 | 6.9 ± 1 | 1.8 ± 0.1 | 7.9 ± 0.5 | 5.5 ± 0.5 | 1.6 ± 0.2 | Cholesterol (total), Average [7]: 5.8 ± 0.4 mmol/L; Triglycerides, Average [7]: 1.8 ± 0.2 mmol/L
CC(=O)Oc1ccccc1C(=O)Oc1ccccc1C(=O)Oc1ccccc1C(=O)O.CCN(CC)CCOC(=O)c1ccccc1OC(=O)c1ccccc1OC(C)=O [P-60, diethylaminoethyl acetylsalicylsalicylate.acetylsalicylsalicylsalicylic acid salt] | 1.3 ± 0.2 | 7.3 ± 0.6 | 5.3 ± 0.6 | 1.5 ± 0.2 | 5.6 ± 0.3 | 2.5 ± 0.2 | 7.9 ± 1 | 16.5 ± 3 | 8.6 ± 1 | 25.5 ± 3 | 7.5 ± 1 | 6.6 ± 1 | 8.6 ± 1 | 15.5 ± 3 | 7.3 ± 1 | 6.8 ± 1 | 1.5 ± 0.2 | 7.5 ± 0.5 | 5.2 ± 0.5 | 1.6 ± 0.2 | Cholesterol (total), Average [7]: 5.5 ± 0.3 mmol/L; Triglycerides, Average [7]: 2.5 ± 0.2 mmol/L
